Laboratory results taken from US9901079B2, “Inhibition of oncogenic kras-induced GM-CSF production and function” (New York University, priority 2011, dated 2018).

System: GM-CSF expression in Kras^G12D-PDEC
Experiment: GM-CSF mRNA expression in GFP-Kras^G12D-PDEC after pathway inhibitor treatment (quantitative RT-PCR)
Type: cell-based, mouse
Settings: 24 hour treatment; U0126 2 μM, LY294002 10 μM (FIG. 3B)
Excerpt: Data are presented as an average fold induction over values from GFP-WT-PDEC or normal pancreata. Error bars indicate SD (n=3). […] Error bars indicate SD (n=3). […] Data are presented as an average fold induction over values from normal pancreatic tissue. Error bars indicate SD (n=3). FIG. 3D are photomicrographs showing immunohistochemical staining for GM-CSF protein in representative samples of human pancreatic cancer containing PanIN lesions (i-normal duct from adjacent non-malignant tissue; ii-iii PanIN lesions; iv-invasive PDA). White arrowheads indicate pancreatic duct (i), PanIN (ii and iii), and PDA (iv). Scale bars=50 μm. Extraction and reverse transcription of total RNA from PDECs was performed using RNeasy mini kit (QIAGEN) and QuantiTect reverse transcription kit (QIAGEN), respectively. SYBR Green PCR Master Mix (USB) was used for amplification and the samples were run on the Stratagene Mx 3005P. Expression levels were normalized by GAPDH.

SMILES: N#CC(=C(/N)Sc1ccccc1N)/C(C#N)=C(\N)Sc1ccccc1N [U0126]
- GM-CSF expression in Kras^G12D-PDEC: abrogation of GM-CSF expression
